Results: patent publication US9428542B2, “Lupane triterpenoid derivatives and pharmaceutical use thereof” (priority 2012, dated 2016)

Key:
HIV-1IIIB = experiment: HIV-1 full replication assay (HIV-1IIIB-infected MT-2 cells, supernatant read out on TZM-bl cells, β-Gal); format: cell-based; conditions: inhibiting HIV-1IIIB replication in MT-2 cells, 3 days; for IC50: Human immunodeficiency virus 1, MT2, 72 h, read-out: IC50 (PM)
Protocol: The antiviral activity of the compounds of the present invention was determined in a HIV-1 full replication assay.
In this assay, MT-2 cells that are infected with HIV-1IIIB were co-cultured with different concentration of the tested compounds for 3 days and then supernatant is transferred into new 384-well plates containing TZM-bl cells (also called JC53-bl). TZM-bl cells that could be infected by various kinds of HIV-1 strains stably express a great amount of HIV-1 receptor, co-receptor CD4 molecular, and co-receptor CXCR4 and CCR5. TZM-bl cells harbor LTR-luciferase and β-gal two report genes. The expression of luciferase and β-gal reporter directed by HIV-1 LTR can be activated by Tat protein generated after HIV infection, and the quantity of expression is proportional to the quantity of HIV-1. Compounds that interfere with virus replication in MT-2 cells, maturation of the virus, or post-entry steps in the HIV lifecycle decrease the luciferase signal or β-gal signal. In this experiment, BVM (Bevirimat, PA-457) is used as a positive control drug.
Method for Inhibiting HIV-1 Replication Assay:
The MT-2 cells are infected at a Multiciplicity (MOI) of 0.01 TCID50, and then the MT-2 cells suspension was diluted to a needed concentration. 90 μl of the MT-2 cells suspension from above was added into 384-well plates containing 10 μl of the tested compounds.
Compounds were dissolved in DMSO and tested as 11 points 3-fold serial dilutions. After addition of cells to compound plates, plates were placed to humidified 5% CO2 37 incubator for 3 days. 10 μl of cells culture supernatant from the incubated plates was transferred into new black 384-well plates.
Adjusted the TZMb1 cells concentration and 40 μl of TZMb1 cells was added into each well in the black 384-well plates. After addition of the TZMb1 cells to the black plates, black plates were placed to humidified 5% CO2 37 incubator for 24 h, then β-Gal activity was measured.
The anti viral activity %=(measured number-lowest mean number)/(highest mean number-lowest mean number)×100. The IC50 values were calculated by Median Equation and the IC curve was generated by Graphpad Prism V 5.03.
(§1) TC50 is referred to the toxicity in MT-2 cells by the compounds tested at 50% concentration; IC50 is referred to the inhibiting HIV-1IIIB replication in MT-2 cells by the compounds tested at 50% concentration; Therapeutic Index (TI)=TC50/IC50.

MT-2 cells = experiment: Compounds' cytotoxicity assay in MT-2 cells (CellTiter-Glo); format: cell-based; parameters: unit not given here; conditions: toxicity in MT-2 cells, 3 days
Protocol: 3. Method for Compounds' Cytotoxicity Assay:
The MT-2 cells are diluted to a needed concentration. 90 μl of the MT-2 cells suspension was added into 384-well plates containing 10 μl of the tested compounds. Compounds were dissolved in DMSO and tested as 11 points 3-fold serial dilutions. After addition of cells to compound plates, plates were placed to humidified 5% CO2 37 incubator for 3 days. The Luciferase activity was measured by CellTiter-Glo® Luminescent Cell Viability Assay kit (Promega Corp., WI, USA).
as §1

SMILES | IC50 (HIV-1IIIB) [nM] | TC50 (PM) (MT-2 cells) | IC50 (PM) (HIV-1IIIB) [nM]
CNCCn1c(C[C@@]23CC[C@]4(C)[C@H](CC[C@@H]5[C@@]6(C)CC[C@H](OC(=O)CC(C)(C)C(=O)O)C(C)(C)[C@@H]6CC[C@]54C)C2=C(C(C)C)C(=O)C3)nnc1-c1ccc(Cl)cc1 [Compound 116-2] | 4.8 | 27 | –
CC(C)C1=C2[C@H]3CC[C@@H]4[C@@]5(C)CC[C@H](OC(=O)CC(C)(C)C(=O)O)C(C)(C)[C@@H]5CC[C@@]4(C)[C@]3(C)CC[C@@]2(Cc2nnc(-c3ncc(Cl)cn3)o2)CC1=O [Compound 22-16] | 0.48 | 39 | –
CC(C)C1=C2[C@H]3CC[C@@H]4[C@@]5(C)CC[C@H](OC(=O)CC(C)(C)C(=O)O)C(C)(C)[C@@H]5CC[C@@]4(C)[C@]3(C)CC[C@@]2(c2cnc(-c3ccc(Cl)cc3)o2)CC1=O [Compound 77] | 159 | 200 | –
CC(C)C1=C2[C@H]3CC[C@@H]4[C@@]5(C)CC[C@H](OC(=O)CC(C)(C)C(=O)O)C(C)(C)[C@@H]5CC[C@@]4(C)[C@]3(C)CC[C@@]2(c2nnc(N(CCN(C)C)c3ccc(Cl)cc3)o2)CC1=O [Compound 133-2] | ≤ 0.17 | 47 | –
CC(C)C1=C2[C@H]3CC[C@@H]4[C@@]5(C)CC[C@H](OC(=O)CC(C)(C)C(=O)O)C(C)(C)[C@@H]5CC[C@@]4(C)[C@]3(C)CC[C@@]2(Cc2cc(=O)n(-c3ccc(Cl)cc3)n2C)CC1=O [98′-1] | ≤ 0.17 | 62 | –
CC(C)C1=C2[C@H]3CC[C@@H]4[C@@]5(C)CC[C@H](OC(=O)CC(C)(C)C(=O)O)C(C)(C)[C@@H]5CC[C@@]4(C)[C@]3(C)CC[C@@]2(c2cc(=O)n(-c3ccc(Cl)cc3)n2CCN)CC1=O [Compound 155-1] | 1.6 | 78 | –
CC(C)C1=C2[C@H]3CC[C@@H]4[C@@]5(C)CC[C@H](OC(=O)CC(C)(C)C(=O)O)C(C)(C)[C@@H]5CC[C@@]4(C)[C@]3(C)CC[C@@]2(c2nnc(-c3ccccc3)o2)CC1=O [Compound 27-2] | 2 | 100 | –
CC(C)C1=C2[C@H]3CC[C@@H]4[C@@]5(C)CC[C@H](OC(=O)CC(C)(C)C(=O)O)C(C)(C)[C@@H]5CC[C@@]4(C)[C@]3(C)CC[C@@]2(Cc2nnc(-c3cccnc3)o2)CC1=O [Compound 22-9] | 4.3 | 33 | –
COc1ccc(-n2c(=O)cc([C@@]34CC[C@]5(C)[C@H](CC[C@@H]6[C@@]7(C)CC[C@H](OC(=O)CC(C)(C)C(=O)O)C(C)(C)[C@@H]7CC[C@]65C)C3=C(C(C)C)C(=O)C4)n2C)cn1 [Compound 98-2] | 3 | 44 | –
CC(C)C1=C2[C@H]3CC[C@@H]4[C@@]5(C)CC[C@H](OC(=O)CC(C)(C)C(=O)O)C(C)(C)[C@@H]5CC[C@@]4(C)[C@]3(C)CC[C@@]2(c2nnc(-c3cccnc3)o2)CC1=O [Compound 27-9] | 8.8 | 200 | –
CC(C)C1=C2[C@H]3CC[C@@H]4[C@@]5(C)CC[C@H](OC(=O)CC(C)(C)C(=O)O)C(C)(C)[C@@H]5CC[C@@]4(C)[C@]3(C)CC[C@@]2(c2nnc(-c3ccc(Cl)cc3)o2)CC1=O [Compound 27-1] | 3.3 | 50 | –
CC(C)C1=C2[C@H]3CC[C@@H]4[C@@]5(C)CC[C@H](OC(=O)CC(C)(C)C(=O)O)C(C)(C)[C@@H]5CC[C@@]4(C)[C@]3(C)CC[C@@]2(c2cc(=O)n(CC(=O)O)n2C)CC1=O [Compound 91-5] | – | 160 | 2110
CC(C)C1=C2[C@H]3CC[C@@H]4[C@@]5(C)CC[C@H](OC(=O)CC(C)(C)C(=O)O)C(C)(C)[C@@H]5CC[C@@]4(C)[C@]3(C)CC[C@@]2(Cc2nc(-c3ccc(Cl)cc3)no2)CC1=O [Compound 108-2] | 160 | 26 | –
CC(C)C1=C2[C@H]3CC[C@@H]4[C@@]5(C)CC[C@H](OC(=O)CC(C)(C)C(=O)O)C(C)(C)[C@@H]5CC[C@@]4(C)[C@]3(C)CC[C@@]2(Nc2nnc(-c3ccc(Cl)cn3)o2)CC1=O [Compound 141-2] | 0.26 | 24 | –
COc1ccc(-c2nnc(C[C@@]34CC[C@]5(C)[C@H](CC[C@@H]6[C@@]7(C)CC[C@H](OC(=O)CC(C)(C)C(=O)O)C(C)(C)[C@@H]7CC[C@]65C)C3=C(C(C)C)C(=O)C4)o2)nc1 [Compound 22-17] | 2.8 | 200 | –
CC(C)C1=C2[C@H]3CC[C@@H]4[C@@]5(C)CC[C@H](OC(=O)CC(C)(C)C(=O)O)C(C)(C)[C@@H]5CC[C@@]4(C)[C@]3(C)CC[C@@]2([C@@H](O)c2nnc(-c3ncc(Cl)cn3)o2)CC1=O [Compound 127-5] | 1 | 38 | –
CC(C)C1=C2[C@H]3CC[C@@H]4[C@@]5(C)CC[C@H](OC(=O)CC(C)(C)C(=O)O)C(C)(C)[C@@H]5CC[C@@]4(C)[C@]3(C)CC[C@@]2(c2nnc(-c3ccc(C(F)(F)F)cn3)o2)CC1=O [Compound 27-11] | 25 | 23 | –
CC(C)C1=C2[C@H]3CC[C@@H]4[C@@]5(C)CC[C@H](OC(=O)CC(C)(C)C(=O)O)C(C)(C)[C@@H]5CC[C@@]4(C)[C@]3(C)CC[C@@]2(c2cc(=O)n(Cc3ccccc3)n2C)CC1 [Compound 89-2] | 58.4 | 37 | –
CC(C)C1=C2[C@H]3CC[C@@H]4[C@@]5(C)CC[C@H](OC(=O)CC(C)(C)C(=O)O)C(C)(C)[C@@H]5CC[C@@]4(C)[C@]3(C)CC[C@@]2(c2cc(=O)n(-c3ccc(Cl)cc3)n2C)CC1 [Compound 96-1] | 33 | 17 | –
CC(C)C1=C2[C@H]3CC[C@@H]4[C@@]5(C)CC[C@H](OC(=O)CC(C)(C)C(=O)O)C(C)(C)[C@@H]5CC[C@@]4(C)[C@]3(C)CC[C@@]2(Cc2nnc(-c3ccc(Br)cn3)o2)CC1=O [Compound 22-14] | ≤ 0.17 | 200 | –
CC(C)C1=C2[C@H]3CC[C@@H]4[C@@]5(C)CC[C@H](OC(=O)CC(C)(C)C(=O)O)C(C)(C)[C@@H]5CC[C@@]4(C)[C@]3(C)CC[C@@]2(c2nnc(-c3ccc(Cl)cc3)s2)CC1=O [Compound 102] | 175 | 9.93 | –
CCn1c([C@@]23CC[C@]4(C)[C@H](CC[C@@H]5[C@@]6(C)CC[C@H](OC(=O)CC(C)(C)C(=O)O)C(C)(C)[C@@H]6CC[C@]54C)C2=C(C(C)C)C(=O)C3)cc(=O)n1-c1ccc(Cl)cn1 [Compound 98-6] | ≤ 0.17 | 13 | –
CC(C)C1=C2[C@H]3CC[C@@H]4[C@@]5(C)CC[C@H](OC(=O)CC(C)(C)C(=O)O)C(C)(C)[C@@H]5CC[C@@]4(C)[C@]3(C)CC[C@@]2(c2nnc(-c3ccc(Cl)cn3)o2)CC1=O [Compound 27-3] | 1.5 | 36 | –
CC(C)C1=C2[C@H]3CC[C@@H]4[C@@]5(C)CC[C@H](OC(=O)CC(C)(C)C(=O)O)C(C)(C)[C@@H]5CC[C@@]4(C)[C@]3(C)CC[C@@]2(c2nnc(-c3ncc(Cl)cn3)o2)CC1=O [Compound 27-14] | 4.9 | 46 | –
CC(C)C1=C2[C@H]3CC[C@@H]4[C@@]5(C)CC[C@H](OC(=O)CC(C)(C)C(=O)O)C(C)(C)[C@@H]5CC[C@@]4(C)[C@]3(C)CC[C@@]2(Cc2nnc(-c3ccccc3)o2)CC1=O [Compound 22-2] | 1.7 | 28 | –
CC(C)C1=C2[C@H]3CC[C@@H]4[C@@]5(C)CC[C@H](OC(=O)CC(C)(C)C(=O)O)C(C)(C)[C@@H]5CC[C@@]4(C)[C@]3(C)CC[C@@]2(c2cc(=O)n(-c3ccc(Cl)cc3)n2CCN(C)C)CC1=O [Compound 156-1] | ≤ 0.17 | 19 | –
CC(C)C1=C2[C@H]3CC[C@@H]4[C@@]5(C)CC[C@H](OC(=O)CC(C)(C)C(=O)O)C(C)(C)[C@@H]5CC[C@@]4(C)[C@]3(C)CC[C@@]2(Cc2nnc(-c3ccc(C#N)cn3)o2)CC1=O [Compound 22-15] | 2.1 | 34 | –
